A word on the IC50: it is the point on the concentration scale where inhibition reaches its midpoint. As a reminder, the AUC is concentration integrated over time. A word on the Cmax: it is the peak of the concentration-time curve. A word on the Tmax: it is the time at which the peak concentration occurs. As a reminder, the half-life is the time needed for the level to fall by half in the phase considered. Read a high half-life as slow decline. The term bioavailability denotes the share of a dose that reaches the circulation, judged against a reference dose that is usually intravenous. A low value points to little systemic uptake.

Some results are limits rather than exact numbers.

One data set addresses BTK WT (Homo sapiens (Human), UniProt Q06187). The data set is described as follows: Lantha screening kinase reaction, inhibition of BTK WT. In kind it is biochemical. On the procedure: The compound was predissolved in 100% DMSO. 10 mM drug stock solution was obtained by dissolution at room temperature and then serially diluted with 8 vol % DMSO solution to a final concentration of 10-0.005 μM. […] Among the wells, the kinase in the blank well was replaced with a reaction buffer and the kinase well (Enzyme) was not added with any drug. After shaking at 25° C. for 60 minutes in the dark, 10 μl of Detection Solution (mixture of Invitrogen PV3528 and EDTA, which was diluted with TR-FRET dilution buffer, the working concentration of EDTA was 5 mM, the working concentration of Lanthascreening Tb PY20 antibody was 0.2 nM) was added and shaken at room temperature for 30 minutes. The plates were read on a VictorX5 fluorescent plate reader (PerkinElmer) and the light absorption at an excitation wavelength of 340 nm and emission wavelengths of 500 nm and 520 nm was measured.
The calculation method for the inhibition ratio (referring to the specification of Invitrogen, PV3363) was as follows: Emission ratio (ER):Coumarin Emission (520 nm)/Fluorescein Emission (500 nm) 1. The inhibition ratio (IR):(ERkinase−ERtest compound)/(ERkinase−ERblank)×100%. 2.
The half-inhibitory concentration IC50 was calculated by fitting with XLFIT5.0 software (IDBS, UK).

For another data set, the target named is βBTK Y223 (Homo sapiens (Human), UniProt Q06187). The data set is described as follows: Intracellular βBTK Y223 phosphorylation HTRF in Ramos cells. In kind it is cell-based. On the procedure: The compound was predissolved in 100% DMSO. […] 20 μl of lysate (4× lysate: blocked mother liquor is 25:1) was added to each well and incubated for 30 minutes at 25° C. on a shaker. It was shaken on an oscillator at 800 rpm for 1 minute. […] The half-inhibitory concentration IC50 was calculated by fitting with XLFIT 5.0 software (IDBS, UK).
Background: TR-FRET usually uses a lanthanide donor and a delayed reading to cut background.

The target of another data set is wild-type EGFR kinase (Homo sapiens (Human), UniProt P00533). The data set is described as follows: Wild type EGFR kinase inhibition test (z-lyte). In kind it is biochemical. Particulars: 10 μM ATP; read-out: EGFR WT IC50. The source says:
All the following reagents used in z-lyte test are commercially available from Invitrogen.
The calculation method for the inhibition ratio (referring to the specification of Invitrogen, PV3363) was as follows: ER=Coumarin Emission(450 nm)/Fluorescein Emission(520 nm) 1. Phosphorylation ratio=(1−((ER×C3520nm−C3450nm)/((C1450nm−C3450nm)+ER×(C3520nm−C1520nm))))×100% 2. Inhibition ratio (IR)=(1−phosphorylation ratio of the test compound)/(phosphorylation ratio of C2))×100% 3.
The half-inhibitory concentration IC50 was calculated by fitting with XLFIT 5.0 software (IDBS, UK).

The next data set in a line: in vivo. The method, then:
Test Animals: ICR mice, weight 28-30 g, male, totally 12, purchased from SLAC Laboratory Animal Co., Ltd. Mice were fasting one night before administration and freely fed 4 hours after administration.
Administration and Blood collection: 6 mice were administered intragastrically (PO) in a administered dosage of 30 mg/kg and a administered volume of 10 mL/kg. One administration route was subjected with 6 mice, blood samples of three mice were collected at one time point, and blood samples of another three mice were collected at alternate time point alternately. Blood was collected at 8 time points of 0.083, 0.25, 0.5, 1, 2, 4, 8, 24 h after administration respectively.
Animals were manually controlled at the time of collection and approximately 80 μL of blood was collected from the mice fundus venous plexus into a tube containing K2EDTA. The collected blood sample was put on wet ice, centrifuged within 15 min (8000 rpm, 4 min at 4° C.), and then the plasma sample was taken and stored at minus 20° C. till analysis. The compounds were prepared on the day of the experiment.
Solvent excipient information: DMSO (brand: Sigma, batch number: SHBD2446V); 2-hydroxypropyl-3-cyclodextrin (brand: Sigma, batch number: BCBN8227V), acetic acid (brand: Sinopharm Group, batch number: 20150616), sodium acetate (Brand: GENERAL-REAGENT, batch number: P1246037).
Preparation of a 3 mg/mL PO dosing solution: the solvent was a solution of 5% DMSO and 95% PH4.5 (sodium acetate-acetate) in 20% of 2-hydroxypropyl-β-cyclodextrin.
Analytical method: Plasma samples were analyzed by liquid chromatography-tandem mass spectrometry (Instrument type: Triple Quad™ 4000).
Preparation of the standard curve: preparing a standard curve of the test compound 1n the plasma matrix of ICR mice with a linear range of 1.00-3000 ng/mL, and preparing control samples at low, medium and high concentrations of 3 ng/mL, 500 ng/mL, and 2400 ng/mL respectively.
Treatment of biological samples: the frozen plasma samples were thawed on ice, and after the samples were thawed, they were vortexed on a vortex for 5 min. 20 μL of plasma sample was added to a 96-well plate, and 200 μL of acetonitrile (brand: Merck, Lot: 1854029643) containing an internal standard dexamethasone (Brand: NIFDC, Lot: 1N2V-DPGY, 2000 ng/mL) was added to precipitate protein, which were vortexed for 5 min, and then centrifuged at 3700 rpm and 4° C. for 15 min. The supernatant was extracted and twice centrifuged under the same conditions, and finally 2 μL of the supernatant solution was analyzed by LC-MS/MS.

Setting [1] is: male, ICR, mouse, in vivo, po, 30 mg/kg.

βBTK Y223, sequence (Q06187 whole entry): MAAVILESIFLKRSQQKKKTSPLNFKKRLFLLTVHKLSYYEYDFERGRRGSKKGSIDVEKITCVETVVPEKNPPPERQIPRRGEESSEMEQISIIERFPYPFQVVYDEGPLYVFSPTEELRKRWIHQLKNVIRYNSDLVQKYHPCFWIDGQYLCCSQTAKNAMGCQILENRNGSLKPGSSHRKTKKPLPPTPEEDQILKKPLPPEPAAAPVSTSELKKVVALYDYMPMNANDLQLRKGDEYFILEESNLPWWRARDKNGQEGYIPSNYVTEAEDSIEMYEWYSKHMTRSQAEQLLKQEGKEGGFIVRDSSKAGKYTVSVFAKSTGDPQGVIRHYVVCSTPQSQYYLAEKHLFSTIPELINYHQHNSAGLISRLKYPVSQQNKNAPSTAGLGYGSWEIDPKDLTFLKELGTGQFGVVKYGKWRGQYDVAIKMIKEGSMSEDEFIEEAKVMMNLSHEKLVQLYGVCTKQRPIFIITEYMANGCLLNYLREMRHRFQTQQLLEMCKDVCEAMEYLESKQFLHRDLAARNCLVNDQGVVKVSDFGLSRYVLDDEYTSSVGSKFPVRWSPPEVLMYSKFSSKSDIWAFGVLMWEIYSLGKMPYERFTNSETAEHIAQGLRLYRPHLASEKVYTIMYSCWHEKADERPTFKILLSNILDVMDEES
BTK WT, sequence (Q06187 whole entry): as above
wild-type EGFR kinase, sequence (P00533 25-1210): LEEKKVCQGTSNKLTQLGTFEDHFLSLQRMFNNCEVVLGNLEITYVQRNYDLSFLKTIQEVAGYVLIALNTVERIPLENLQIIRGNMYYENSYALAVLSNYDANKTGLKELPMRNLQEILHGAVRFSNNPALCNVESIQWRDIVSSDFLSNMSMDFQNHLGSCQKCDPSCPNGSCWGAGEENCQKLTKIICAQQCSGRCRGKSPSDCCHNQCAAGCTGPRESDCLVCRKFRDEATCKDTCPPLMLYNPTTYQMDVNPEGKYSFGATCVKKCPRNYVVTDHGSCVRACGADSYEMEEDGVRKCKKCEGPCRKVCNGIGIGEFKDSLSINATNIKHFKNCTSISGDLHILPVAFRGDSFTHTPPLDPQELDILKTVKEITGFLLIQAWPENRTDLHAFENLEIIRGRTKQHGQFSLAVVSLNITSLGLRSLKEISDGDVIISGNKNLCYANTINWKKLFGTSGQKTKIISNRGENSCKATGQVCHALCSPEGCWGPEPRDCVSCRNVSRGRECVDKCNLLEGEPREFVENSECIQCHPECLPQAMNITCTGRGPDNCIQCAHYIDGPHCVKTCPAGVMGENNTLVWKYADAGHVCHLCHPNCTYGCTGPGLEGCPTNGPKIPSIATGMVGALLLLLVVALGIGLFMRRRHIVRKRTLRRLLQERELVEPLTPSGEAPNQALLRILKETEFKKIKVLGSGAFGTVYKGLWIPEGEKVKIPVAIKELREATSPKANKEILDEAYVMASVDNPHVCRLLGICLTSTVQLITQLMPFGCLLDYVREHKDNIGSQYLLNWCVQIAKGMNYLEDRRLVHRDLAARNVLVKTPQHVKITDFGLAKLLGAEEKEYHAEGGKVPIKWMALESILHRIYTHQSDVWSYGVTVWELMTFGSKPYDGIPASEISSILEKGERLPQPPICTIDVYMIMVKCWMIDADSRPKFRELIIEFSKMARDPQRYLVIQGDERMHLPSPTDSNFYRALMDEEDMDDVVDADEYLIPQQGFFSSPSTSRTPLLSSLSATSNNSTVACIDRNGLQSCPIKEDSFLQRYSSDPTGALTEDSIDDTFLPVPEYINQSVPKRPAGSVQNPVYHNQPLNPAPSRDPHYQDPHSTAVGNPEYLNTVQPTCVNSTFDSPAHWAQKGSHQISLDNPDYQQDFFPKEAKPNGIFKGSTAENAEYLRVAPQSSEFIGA

As to `C=CC(=O)N1CCCC(N(C)c2nc(Nc3cc(C)ns3)c3c(c2F)CNC3=O)C1` (stereo not drawn) [Compound G-72, 6-((1-acryloylpiperidin-3-yl)(methyl)amino)-7-fluoro-4-(3-methylisothiazole-5-ylamino)-1H-pyrrolo[3,4-c]pyridine-3(2H)-one], the IC50 against BTK WT came out at 5 nM. In addition, it took 4 nM to reach half-maximal inhibition against βBTK Y223 (IC50). In addition, the IC50 on wild-type EGFR kinase stood at 1660 nM. For the same compound, in “in vivo” (setting [1]), the AUC was determined as 107 ng·h/mL, the highest concentration (Cmax) came to 10.7 ng/mL, the Tmax amounted to 15 min and the half-life is 679 min. Besides, the “efficacy of the compound in mice compared with the compound without substituent on the nitrogen atom attached to the piperidine ring” value in “in vivo” (mouse, in vivo, po, 30 mg/kg) is on record as “significantly lower”.
On BTK WT, `C=CC(=O)N1CCCC(N(C)c2nc(-c3cnn(C)c3)c3c(c2F)CNC3=O)C1` (stereo not drawn) [Compound G-60, 6-((1-acryloylpiperidin-3-yl)(methyl)amino)-7-fluoro-4-(1-methyl-1H-pyrazole-4-yl)-1H-pyrrolo[3.4-c]pyridine-3 (2H)-one] displayed a concentration for half-maximal inhibition (IC50) of 9 nM. The half-maximal inhibitory concentration (IC50) at βBTK Y223 was found to be 24 nM. Besides, the 50% inhibitory concentration (IC50) at wild-type EGFR kinase is over 10000 nM. In “in vivo” (ICR mice, PO 30 mg/kg, pairs G-7/G-60, G-14/G-71, G-23/G-72), the “efficacy of the compound in mice compared with the compound without substituent on the nitrogen atom attached to the piperidine ring” value was “significantly lower”. In “in vivo” (mouse, in vivo, po, 30 mg/kg), the “Area under curve AUC” value is 109 ng·h/mL, the “Maximum blood concentration Cmax” value is given as 351.7 ng/mL, the “Oral relative bioavailability F (%)” value was 3% and the “Tmax” value amounted to 4.8 min. The “half-time T1/2” value in the data set “in vivo” (mouse, in vivo, po, 30 mg/kg) was determined as 634.2 min.
At BTK WT, `C=CC(=O)N1CC(Nc2nc(-c3cnn(C)c3)c3c(c2F)CNC3=O)CCC1C` (stereo not drawn) [Compound G-26, 6-(1-acryloyl-6-methylpiperidin-3-ylamino)-7-fluoro-4-(1-methyl-1H-pyrazole-4-yl)-1H-pyrrolo[3,4-c]pyridine-3(2H)-one] yielded a half-maximal inhibitory concentration (IC50) of 27 nM. Moreover, at βBTK Y223, it took 47 nM to reach half-maximal inhibition (IC50). Moreover, the half-inhibitory concentration (IC50) on wild-type EGFR kinase was 6690 nM. For the same compound, in the data set “in vivo” (setting [1]), the AUC turned out to be 1290 ng·h/mL, the Cmax amounted to 2400 ng/mL, the time of peak concentration (Tmax) is 4.8 min and the bioavailability was determined as 13.1%. This compound gave a half-life in “in vivo” (setting [1]) of 127 min.
As to `C=CC(=O)N1CCCC(Nc2nc(Nc3ccc(N4CCOCC4)cc3F)c3c(c2F)CNC3=O)C1` (stereo not drawn) [Compound G-31], the IC50 on BTK WT is 7 nM. The compound also yielded an IC50 at βBTK Y223 of 11 nM. The IC50 at wild-type EGFR kinase stood at 7930 nM. In “in vivo” (mouse, in vivo, po, 30 mg/kg), the “Area under curve AUC” value is 1839 ng·h/mL, the “Maximum blood concentration Cmax” value amounted to 1237.0 ng/mL, the “Oral relative bioavailability F (%)” value turned out to be 28.2% and the “Tmax” value worked out at 15 min. Also, the “half-time T1/2” value in the data set “in vivo” (mouse, in vivo, po, 30 mg/kg) was 103 min.
Consider `C=CC(=O)N1CCCC(Nc2nc(Nc3cnn(C4CCS(=O)(=O)CC4)c3)c3c(c2F)CNC3=O)C1` (stereo not drawn) [Compound G-13], for which the IC50 on BTK WT came out at 3 nM; at βBTK Y223, 45 nM; at wild-type EGFR kinase it was 1600 nM.
As for `C=CC(=O)N1CCCC(Nc2nc(Nc3cnn(C4CCOCC4)c3)c3c(c2F)CNC3=O)C1` (stereo not drawn) [Compound G-10], the IC50 against BTK WT amounted to 3 nM; at βBTK Y223, 7 nM; at wild-type EGFR kinase it was 1740 nM.
As for `C=CC(=O)N1CCCC(Nc2nc(Nc3ccc(OCCOC)cc3)c3c(c2F)CNC3=O)C1` (stereo not drawn) [Compound G-2, 6-(1-acryloylpiperidin-3-ylamino)-7-fluoro-4-(4-(2-methoxyethoxy)phenylamino)-1H-pyrrolo[3,4-c]pyridine-3 (2H)-one], the half-maximal inhibitory concentration (IC50) at BTK WT turned out to be 3 nM; against βBTK Y223, 5 nM; on wild-type EGFR kinase, 1620 nM.
Regarding `C=CC(=O)N1CCCCC(Nc2nc(Nc3ccc(OCCOC)cc3)c3c(c2F)CNC3=O)C1` (stereo not drawn) [Compound G-3, 6-(1-acryloylazacycloheptane-3-ylamino)-7-fluoro-4-(4-(2-methoxyethoxy)phenylamino)-1H-pyrrolo[3,4-c]pyridine-3 (2H)-one], the values for the IC50 at BTK WT, on βBTK Y223 and at wild-type EGFR kinase were 2 nM, 11 nM and 2290 nM, respectively.
As for `C=CC(=O)N1CCCCC(Nc2nc(Nc3ccc(N4CCOCC4)cc3)c3c(c2F)CNC3=O)C1` (stereo not drawn) [Compound G-27], the IC50 is 5 nM on BTK WT, 11 nM at βBTK Y223 and 3690 nM on wild-type EGFR kinase.
Consider `C=CC(=O)N1CCCC(Nc2nc(Nc3ccc(N4CCN(C)CC4)cn3)c3c(c2F)CNC3=O)C1` (stereo not drawn) [Compound G-12], for which the results for the IC50 against BTK WT, against βBTK Y223 and on wild-type EGFR kinase were 21 nM, 80 nM and 3850 nM, respectively.
On to `C=CC(=O)N1CCCC(Nc2nc(Nc3cnn(C)c3)c3c(c2F)CNC3=O)C1` (stereo not drawn) [Compound G-25], for which the IC50 worked out at 2 nM against BTK WT, 2 nM against βBTK Y223 and 1090 nM on wild-type EGFR kinase.
Turning to `C=CC(=O)NC1CN(c2nc(Nc3cnn(C)c3)c3c(c2F)CNC3=O)C1` [Compound G-85, N-(1-(7-fluoro-4-(1-methyl-1H-pyrazol-4-ylamino)-3-oxo-2,3-dihydro-1H-pyrrolo[3,4-c]pyridin-6-yl)azetidin-3-yl)acrylamide], the results for the IC50 on BTK WT, against βBTK Y223 and at wild-type EGFR kinase were 32 nM, 43 nM and 1120 nM, respectively.
Regarding `C=CC(=O)N1CCCC(Nc2nc(-c3cnn(C)c3)c3c(c2F)CNC3=O)C1C` (stereo not drawn) [Compound G-51], the IC50 on BTK WT came out at 62 nM; at βBTK Y223 it was 80 nM; on wild-type EGFR kinase, 6820 nM.
As to `C=CC(=O)N1CC2CN(c3nc(Nc4cnn(C)c4)c4c(c3F)CNC4=O)CC2C1` (stereo not drawn) [Compound G-76], the results for the IC50 against BTK WT, at βBTK Y223 and at wild-type EGFR kinase were 0.8 nM, 2 nM and 1360 nM, respectively.
Turning to `C=CC(=O)N1CCCC(Nc2nc(Nc3ccc(OCCOC)cc3)c3c(c2F)CNC3=O)CC1` (stereo not drawn) [Compound G-4], the IC50 against BTK WT stood at 7 nM; against βBTK Y223 it was 23 nM; on wild-type EGFR kinase, 2370 nM.
As to `C=CC(=O)N(C)C1CCN(c2nc(Nc3cnn(C)c3)c3c(c2F)CNC3=O)C1` (stereo not drawn) [Compound G-88, N-(1-(7-fluoro-4-(1-methyl-1H-pyrazol-4-ylamino)-3-oxo-2,3-dihydro-1H-pyrrolo[3,4-c]pyridin-6-yl)pyrrolidine-3-yl)-N-methyl acrylamide], the IC50 worked out at 17 nM on BTK WT, 56 nM against βBTK Y223 and 1050 nM on wild-type EGFR kinase.
In the same order, the values of `C=CC(=O)N1CCCC(N(C)c2nc(-c3cnn(C(F)F)c3)c3c(c2F)CNC3=O)C1` (stereo not drawn) [Compound G-63, 6-((1-acryloylpiperidin-3-yl)(methyl)amino)-4-(1-(difluoromethyl)-1H-pyrazole-4-yl)-7-fluoro-1H-pyrrolo[3,4-c]pyridine-3(2H)-one] are 25 nM, 50 nM and over 10000 nM.

The record behind these values is US11155546B2, “4,6,7-trisubstituted 1,2-dihydropyrrolo[3,4-c]pyridin/pyrimidin-3-one derivatives and uses thereof” (SHANGHAI HAIYAN PHARMACEUTICAL TECHNOLOGY CO., LTD., priority 2017, dated 2021).
